Laboratory results from ChEMBL document CHEMBL1201862, “PubChem BioAssay data set” (2004).
Active and inactive are the calls of the source.

Key:
[1] = molecular target: Nonstructural protein 1 (Influenza A virus, UniProt Q194T2); format: functional, Influenza A virus (A/California/07/2009(H1N1))
[2] = molecular target: FAD-linked sulfhydryl oxidase ALR (Homo sapiens, UniProt P55789); assay: inhibitors of human ALR sulfhydryl oxidase, dose response, biochemical, H2O2 detection, luminescence, cherry-pick (AID 493248)
FAD-linked sulfhydryl oxidase ALR, sequence (P55789 whole entry): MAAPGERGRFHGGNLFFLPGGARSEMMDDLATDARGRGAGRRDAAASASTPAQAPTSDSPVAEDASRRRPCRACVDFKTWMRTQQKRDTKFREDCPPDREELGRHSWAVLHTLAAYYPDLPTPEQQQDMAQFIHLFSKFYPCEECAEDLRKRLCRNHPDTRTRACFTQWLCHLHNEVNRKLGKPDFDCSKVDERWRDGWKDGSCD

[3] = growth suppression of PTEN-null colon cells, dose response, cell-based, HCT116 PTEN knockout (AID 1047); format: functional;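 note: HCT116 colon tumor cells with PTEN knocked out; cells exposed to compound for 60 hours before readout; potency for loss of cell viability measured by luminescence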
[4] = test system: Vero; assay: cells; format: functional; details: Chlorocebus sabaeus
[5] = molecular target: T1, Carboxy-terminal domain RNA polymerase II polypeptide A small phosphatase 1 (Homo sapiens, UniProt Q9GZU7); assay: inhibitors of CTDSP1, concentration-response testing, biochemical assay, absorbance-based, actives from ultra-high-throughput screening (AID 540297); format: functional
T1 sequence (Q9GZU7 whole entry): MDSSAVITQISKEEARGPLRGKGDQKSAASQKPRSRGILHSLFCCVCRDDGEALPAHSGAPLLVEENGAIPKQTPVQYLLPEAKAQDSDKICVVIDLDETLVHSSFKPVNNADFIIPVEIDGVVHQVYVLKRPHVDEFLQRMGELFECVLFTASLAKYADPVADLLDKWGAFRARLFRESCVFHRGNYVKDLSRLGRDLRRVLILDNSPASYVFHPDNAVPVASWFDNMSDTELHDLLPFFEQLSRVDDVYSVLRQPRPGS

[6] = molecular target: T2, Heat shock factor protein 1 (Mus musculus, UniProt P38532); assay: inhibition of MG132-induced HSE-luciferase signal, confirmation, cell-based, NIH3T3, luminescence, dose retest (AID 2382); format: functional;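 note: NIH3T3 fibroblasts with HSF1-driven luciferase reporter stressed by proteasome inhibitor MG132; luminescence from HSF1-driven luciferase expression after 8 hours of MG132 stress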
T2 sequence (P38532 whole entry): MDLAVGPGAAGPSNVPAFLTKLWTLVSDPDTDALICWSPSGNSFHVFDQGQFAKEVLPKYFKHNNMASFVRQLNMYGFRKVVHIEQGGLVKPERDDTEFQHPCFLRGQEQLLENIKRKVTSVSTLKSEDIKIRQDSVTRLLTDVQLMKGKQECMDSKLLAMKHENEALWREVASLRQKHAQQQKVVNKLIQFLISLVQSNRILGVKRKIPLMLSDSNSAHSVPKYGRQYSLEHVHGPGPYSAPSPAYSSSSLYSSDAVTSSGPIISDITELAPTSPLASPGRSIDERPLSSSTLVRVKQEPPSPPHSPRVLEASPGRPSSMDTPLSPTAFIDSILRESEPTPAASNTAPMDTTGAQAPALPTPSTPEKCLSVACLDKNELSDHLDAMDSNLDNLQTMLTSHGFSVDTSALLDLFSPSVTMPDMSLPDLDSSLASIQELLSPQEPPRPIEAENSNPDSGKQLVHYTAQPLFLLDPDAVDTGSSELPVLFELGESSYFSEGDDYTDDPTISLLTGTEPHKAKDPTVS

[7] = Shn3 3'UTR reporter inhibitors, dose response, cell-based, Clone20 osteoblasts, firefly luciferase, cherry-picked (AID 624132); format: functional;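 note: firefly luciferase luminescence from reporter carrying the Shn3 3'UTR in osteoblasts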
[8] = HepG2 cell cytotoxicity, dose response, cytotoxicity control for Shn3 inhibitor project, CellTiter-Glo, cherry-picked (AID 624134); format: functional, cell-based
[9] = control 3'UTR Renilla luciferase suppression, dose response, counter-screen for Shn3 inhibitor project, cell-based, Clone20-Shn3RL, cherry-picked (AID 624133); format: functional
[10] = molecular target: T3, Rac GTPase-activating protein 1 (Homo sapiens, UniProt Q9H0H5); assay: MgcRacGAP GTPase-activating activity inhibitors, confirmation, biochemical, ADP Hunter fluorescence, primary and confirmatory (AID 624330); format: functional
T3 sequence (Q9H0H5 whole entry): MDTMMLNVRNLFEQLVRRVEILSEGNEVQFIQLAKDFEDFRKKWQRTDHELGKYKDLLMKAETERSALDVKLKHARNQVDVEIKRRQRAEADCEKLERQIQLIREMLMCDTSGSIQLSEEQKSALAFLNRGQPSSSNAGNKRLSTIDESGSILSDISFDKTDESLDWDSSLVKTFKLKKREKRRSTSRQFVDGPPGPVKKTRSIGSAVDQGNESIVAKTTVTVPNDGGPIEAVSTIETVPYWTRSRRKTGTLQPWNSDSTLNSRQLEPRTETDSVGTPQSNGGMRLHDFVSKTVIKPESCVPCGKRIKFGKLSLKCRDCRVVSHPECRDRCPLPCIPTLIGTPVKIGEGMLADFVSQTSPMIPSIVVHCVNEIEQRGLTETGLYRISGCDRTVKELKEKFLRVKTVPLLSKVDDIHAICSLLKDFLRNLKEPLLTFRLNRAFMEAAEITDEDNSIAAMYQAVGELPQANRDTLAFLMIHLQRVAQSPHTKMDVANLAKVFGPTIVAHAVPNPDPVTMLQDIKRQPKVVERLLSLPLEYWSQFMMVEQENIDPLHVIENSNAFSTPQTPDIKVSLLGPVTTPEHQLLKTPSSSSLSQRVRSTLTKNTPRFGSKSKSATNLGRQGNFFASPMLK

[11] = molecular target: T4, RNA-binding protein pos-1 (Caenorhabditis elegans, UniProt G5EF15); assay: inhibitors of POS-1/mex-3 RNA binding, dose response, biochemical, fluorescence polarization (AID 1964);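 note: purified POS-1 fused to maltose binding protein made in E. coli; potency of compounds blocking POS-1 binding to fluorescent RNA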
T4 sequence (G5EF15 whole entry): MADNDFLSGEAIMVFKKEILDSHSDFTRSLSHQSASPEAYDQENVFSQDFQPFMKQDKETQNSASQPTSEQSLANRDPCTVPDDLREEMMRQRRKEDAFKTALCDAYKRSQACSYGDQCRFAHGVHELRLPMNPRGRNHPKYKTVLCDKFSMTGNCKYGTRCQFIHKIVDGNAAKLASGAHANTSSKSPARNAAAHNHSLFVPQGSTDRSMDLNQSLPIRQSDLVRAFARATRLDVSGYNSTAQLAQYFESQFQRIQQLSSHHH

[12] = molecular target: Genome polyprotein (dengue virus type 2, UniProt P29990); assay: Dengue-2 NS5 methyltransferase inhibitors, primary screen, biochemical, confirmation dose response (AID 588689); format: functional
Genome polyprotein, sequence (P29990 2492-3391 limits assumed): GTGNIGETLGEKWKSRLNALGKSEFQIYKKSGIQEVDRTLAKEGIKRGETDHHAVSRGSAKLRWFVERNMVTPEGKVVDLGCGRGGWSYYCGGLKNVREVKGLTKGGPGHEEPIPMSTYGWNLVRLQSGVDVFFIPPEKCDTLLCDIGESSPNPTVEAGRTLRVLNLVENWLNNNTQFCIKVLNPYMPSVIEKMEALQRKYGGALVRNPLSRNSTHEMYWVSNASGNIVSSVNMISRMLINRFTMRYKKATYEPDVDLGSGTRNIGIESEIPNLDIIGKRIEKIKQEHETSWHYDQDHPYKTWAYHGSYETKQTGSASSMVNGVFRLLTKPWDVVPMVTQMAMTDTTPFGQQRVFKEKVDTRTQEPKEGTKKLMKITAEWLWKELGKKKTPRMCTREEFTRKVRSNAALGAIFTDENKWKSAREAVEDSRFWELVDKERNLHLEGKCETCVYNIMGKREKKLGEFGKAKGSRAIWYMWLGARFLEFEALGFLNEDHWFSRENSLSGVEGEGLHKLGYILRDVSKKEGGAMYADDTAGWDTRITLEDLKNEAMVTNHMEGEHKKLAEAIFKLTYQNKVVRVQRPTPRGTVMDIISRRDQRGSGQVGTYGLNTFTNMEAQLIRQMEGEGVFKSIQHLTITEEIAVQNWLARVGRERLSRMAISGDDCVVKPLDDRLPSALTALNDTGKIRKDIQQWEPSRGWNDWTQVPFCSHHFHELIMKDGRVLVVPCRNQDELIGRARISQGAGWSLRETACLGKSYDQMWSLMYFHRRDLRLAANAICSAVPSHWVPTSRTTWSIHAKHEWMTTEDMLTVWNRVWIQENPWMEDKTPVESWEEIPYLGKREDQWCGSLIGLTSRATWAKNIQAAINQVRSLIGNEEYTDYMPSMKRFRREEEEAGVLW

Nonstructural protein 1, sequence (Q194T2 whole entry): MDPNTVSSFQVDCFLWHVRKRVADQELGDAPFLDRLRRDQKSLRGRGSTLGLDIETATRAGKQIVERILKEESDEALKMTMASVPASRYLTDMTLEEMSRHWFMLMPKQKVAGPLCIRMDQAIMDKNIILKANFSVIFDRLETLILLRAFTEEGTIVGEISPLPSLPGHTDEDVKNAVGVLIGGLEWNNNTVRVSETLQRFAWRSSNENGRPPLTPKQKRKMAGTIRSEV

Compound: Cc1ccn(CC(=O)N/N=C/c2cc([N+](=O)[O-])ccc2O)n1
- IC50 [1]: 7.07 µM (active)

Compound: N#CCC(=O)Nc1sc2c(c1C(N)=O)CCCC2
- AC50 [2]: 14.4 µM (active)

Compound: CCN1CCN(c2cc(C)c3cc(NC(=O)c4ccc5c(c4)OCO5)ccc3n2)CC1
- EC50 [3]: 25.1 µM (active)
- CC50 [4]: > 25 µM (active)

Compound: CC(=Nc1ccccc1)C1=C(O)C(Cc2ccc(O)cc2)NC1=O (stereo not given)
- CC50 [4]: 0.98 µM (active)

Compound: CC(C(=O)Nc1ccc(S(N)(=O)=O)cc1)N1CCc2ccccc21 (stereo not given)
- AC50 [2]: 1.8 µM (active)

Compound: Cc1c(NS(=O)(=O)c2cc(C(=O)NCCN(C)C)ccc2Cl)c(=O)n(-c2ccccc2)n1C
- IC50 [5]: 9.93 µM (active)
- EC50 [6]: > 195 µM (not active)

Compound: CC(CNC(=O)c1cc(COc2ccc3ncccc3c2)on1)c1ccccc1 (stereo not given)
- AC50 [7]: 3.73 µM (active)
- AC50 [8]: 48.9 µM (active)
- AC50 [9]: 11.2 µM (active)

Compound: Cc1cc(NNC(=O)c2cccc(C(F)(F)F)c2)nc2c1c(C)nn2C
- AC50 [7]: 2.43 µM (active)
- AC50 [8]: 57 µM (active)
- AC50 [9]: 3.61 µM (active)

Compound: Cc1ccc(C)c(N2CCN(C(=O)CCS(=O)(=O)c3ccc4c(c3)NC(=O)C(C)S4)CC2)c1 (stereo not given)
- AC50 [7]: 4.47 µM (active)
- AC50 [8]: 4.58 µM (active)
- AC50 [9]: 8.6 µM (active)

Compound: Cc1noc(-c2ccc(Cl)cc2)c1C(=O)ON=C(N)c1ccc(C(C)(C)C)cc1
- CC50 [4]: 18.8 µM (active)

Compound: CN(C)C(=O)c1ccc(NC(=O)c2cc(-c3ccco3)nc3ccccc23)cc1
- IC50 [5]: 7.55 µM (active)

Compound: O=C(N/N=C/C1C(=O)NC(=S)N(c2ccccc2)C1=O)c1cc(Br)c(O)c(Br)c1 (stereo not given)
- IC50 [1]: 10.5 µM (active)

Compound: Oc1ccc(/C=N/Nc2[nH]cnc3ncnc2-3)cc1
- IC50 [10]: 11.6 µM (active)
- EC50 [11]: > 300 µM (not active)

Compound: O=C(CCC1N=C2c3ccccc3N=C(SCC(=O)NCc3ccco3)N2C1=O)NCc1ccco1 (stereo not given)
- IC50 [5]: 5.31 µM (active)

Compound: COc1cc(C(C2C(=O)CC(C)(C)CC2=O)C2C(=O)CC(C)(C)CC2=O)cc(OC)c1OC
- IC50 [12]: 87.7 µM (active)

Compound: C/C=C\C=C\C(=O)N1CC2(CC(c3cccc(NC(=O)CC)c3)=NO2)C[C@H]1C(N)=O (stereo not given in full)
- IC50 [5]: 7.57 µM (active)
